Assay results reported in ChEMBL document CHEMBL3600286, “Initial optimization and series evolution of diaminopyrimidine inhibitors of interleukin-1 receptor associated kinase 4” (Bioorg Med Chem Lett, 2015).
Converted amounts (≈) assume the structure as drawn. The source made the active and inactive calls. The rule behind the calls is not given here.

How the values were obtained:
[1] = target: T1, Interleukin-1 receptor-associated kinase 4 (Homo sapiens, UniProt Q9NWZ3); assay: Inhibition of human IRAK4 (unknown origin)
T1 sequence (Q9NWZ3 whole entry): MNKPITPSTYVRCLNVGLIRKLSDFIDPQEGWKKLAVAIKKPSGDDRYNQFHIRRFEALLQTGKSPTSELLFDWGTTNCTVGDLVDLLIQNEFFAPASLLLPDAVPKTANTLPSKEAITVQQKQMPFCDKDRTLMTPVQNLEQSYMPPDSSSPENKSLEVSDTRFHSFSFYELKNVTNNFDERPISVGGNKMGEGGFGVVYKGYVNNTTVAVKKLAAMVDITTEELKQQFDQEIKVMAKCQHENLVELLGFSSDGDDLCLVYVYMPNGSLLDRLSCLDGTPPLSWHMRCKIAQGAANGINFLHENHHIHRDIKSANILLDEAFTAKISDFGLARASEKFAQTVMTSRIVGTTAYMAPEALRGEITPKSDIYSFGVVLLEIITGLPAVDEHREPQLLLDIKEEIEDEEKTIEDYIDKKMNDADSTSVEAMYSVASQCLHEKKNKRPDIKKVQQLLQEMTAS

[2] = target: Cytochrome P450 2C9 (Homo sapiens, UniProt P11712); assay: Inhibition of CYP2C9 (unknown origin); format: ADME
Chain of Cytochrome P450 2C9 (P11712 whole entry): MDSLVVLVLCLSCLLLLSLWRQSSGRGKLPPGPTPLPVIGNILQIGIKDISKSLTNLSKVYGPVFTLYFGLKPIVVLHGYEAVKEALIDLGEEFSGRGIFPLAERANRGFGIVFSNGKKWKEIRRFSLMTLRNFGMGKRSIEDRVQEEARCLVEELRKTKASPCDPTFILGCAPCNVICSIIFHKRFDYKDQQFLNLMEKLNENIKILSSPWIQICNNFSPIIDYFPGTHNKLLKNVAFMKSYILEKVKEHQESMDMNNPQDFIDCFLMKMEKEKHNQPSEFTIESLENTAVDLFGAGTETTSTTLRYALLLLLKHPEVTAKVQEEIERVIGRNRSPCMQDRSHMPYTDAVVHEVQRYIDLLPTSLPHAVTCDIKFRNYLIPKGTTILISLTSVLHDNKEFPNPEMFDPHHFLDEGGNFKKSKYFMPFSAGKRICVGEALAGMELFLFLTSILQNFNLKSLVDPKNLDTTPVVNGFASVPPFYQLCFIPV

[3] = target: Cytochrome P450 3A4 (Homo sapiens, UniProt P08684); assay: Inhibition of CYP3A4 (unknown origin); format: ADME
Chain of Cytochrome P450 3A4 (P08684 whole entry): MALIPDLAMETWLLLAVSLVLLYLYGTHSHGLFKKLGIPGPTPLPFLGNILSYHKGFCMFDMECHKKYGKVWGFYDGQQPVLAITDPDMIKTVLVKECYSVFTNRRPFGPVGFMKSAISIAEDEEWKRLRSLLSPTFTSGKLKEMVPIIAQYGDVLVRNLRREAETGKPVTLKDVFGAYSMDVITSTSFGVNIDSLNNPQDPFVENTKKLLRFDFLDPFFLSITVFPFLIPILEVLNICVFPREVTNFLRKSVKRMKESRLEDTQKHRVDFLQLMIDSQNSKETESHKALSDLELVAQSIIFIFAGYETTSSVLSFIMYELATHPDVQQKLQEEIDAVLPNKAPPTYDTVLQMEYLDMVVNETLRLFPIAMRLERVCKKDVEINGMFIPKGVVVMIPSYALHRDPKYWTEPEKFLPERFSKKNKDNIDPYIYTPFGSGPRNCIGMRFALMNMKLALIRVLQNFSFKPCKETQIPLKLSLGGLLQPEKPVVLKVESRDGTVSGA

[4] = target: Misshapen-like kinase 1 (Homo sapiens) (UniProt Q8N4C8); assay: Inhibition of MINK1 (unknown origin)
Chain of Misshapen-like kinase 1 (Homo sapiens) (Q8N4C8 whole entry, looked up): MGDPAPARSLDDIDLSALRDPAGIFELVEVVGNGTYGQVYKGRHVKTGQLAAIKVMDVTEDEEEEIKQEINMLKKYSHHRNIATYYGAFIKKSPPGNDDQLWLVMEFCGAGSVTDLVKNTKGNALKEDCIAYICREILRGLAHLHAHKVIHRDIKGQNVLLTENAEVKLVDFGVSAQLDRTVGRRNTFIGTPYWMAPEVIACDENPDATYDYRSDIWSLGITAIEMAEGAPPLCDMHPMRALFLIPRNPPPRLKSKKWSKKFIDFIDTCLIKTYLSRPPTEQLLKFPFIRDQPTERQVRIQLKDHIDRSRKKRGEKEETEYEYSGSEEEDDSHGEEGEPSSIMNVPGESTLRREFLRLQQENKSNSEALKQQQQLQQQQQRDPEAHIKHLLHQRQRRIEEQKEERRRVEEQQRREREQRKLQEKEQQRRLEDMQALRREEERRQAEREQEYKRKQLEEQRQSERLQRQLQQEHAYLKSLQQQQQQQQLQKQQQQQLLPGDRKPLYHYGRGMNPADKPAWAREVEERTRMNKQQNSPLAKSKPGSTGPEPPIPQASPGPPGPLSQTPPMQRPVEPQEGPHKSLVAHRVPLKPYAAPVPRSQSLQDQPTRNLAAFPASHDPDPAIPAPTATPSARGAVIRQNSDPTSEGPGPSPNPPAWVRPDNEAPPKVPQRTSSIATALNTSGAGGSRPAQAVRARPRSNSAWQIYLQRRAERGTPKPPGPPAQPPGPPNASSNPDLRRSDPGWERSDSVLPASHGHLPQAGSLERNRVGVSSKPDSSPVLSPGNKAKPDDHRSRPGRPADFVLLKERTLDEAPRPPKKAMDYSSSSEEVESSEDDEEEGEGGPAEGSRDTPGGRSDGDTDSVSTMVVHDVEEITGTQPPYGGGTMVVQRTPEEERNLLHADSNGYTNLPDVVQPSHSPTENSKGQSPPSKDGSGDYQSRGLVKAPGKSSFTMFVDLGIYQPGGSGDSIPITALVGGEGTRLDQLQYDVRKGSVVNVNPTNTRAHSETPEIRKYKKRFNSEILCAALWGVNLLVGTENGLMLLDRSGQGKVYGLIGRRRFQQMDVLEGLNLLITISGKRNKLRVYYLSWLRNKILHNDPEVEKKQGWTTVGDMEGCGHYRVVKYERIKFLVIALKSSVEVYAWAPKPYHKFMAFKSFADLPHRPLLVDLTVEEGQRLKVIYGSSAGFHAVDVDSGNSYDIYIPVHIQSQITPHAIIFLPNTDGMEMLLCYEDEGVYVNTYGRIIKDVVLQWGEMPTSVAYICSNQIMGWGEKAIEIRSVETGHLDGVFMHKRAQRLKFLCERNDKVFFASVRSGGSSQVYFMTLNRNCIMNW

[5] = target: T1, Interleukin-1 receptor-associated kinase 4; assay: Inhibition of IRAK4-dependent TLR4 signaling in human THP1-XBlue cells containing NF-kappaB-inducible SEAP reporter gene assessed as inhibition of LPS-EK-induced TLR4 activation incubated at 37 degC for 1 hr by spectrophotometry; format: cell-based, THP-1
[6] = target: Cytochrome P450 2D6 (Homo sapiens, UniProt P10635); assay: Inhibition of CYP2D6 (unknown origin); format: ADME
Chain of Cytochrome P450 2D6 (P10635 whole entry): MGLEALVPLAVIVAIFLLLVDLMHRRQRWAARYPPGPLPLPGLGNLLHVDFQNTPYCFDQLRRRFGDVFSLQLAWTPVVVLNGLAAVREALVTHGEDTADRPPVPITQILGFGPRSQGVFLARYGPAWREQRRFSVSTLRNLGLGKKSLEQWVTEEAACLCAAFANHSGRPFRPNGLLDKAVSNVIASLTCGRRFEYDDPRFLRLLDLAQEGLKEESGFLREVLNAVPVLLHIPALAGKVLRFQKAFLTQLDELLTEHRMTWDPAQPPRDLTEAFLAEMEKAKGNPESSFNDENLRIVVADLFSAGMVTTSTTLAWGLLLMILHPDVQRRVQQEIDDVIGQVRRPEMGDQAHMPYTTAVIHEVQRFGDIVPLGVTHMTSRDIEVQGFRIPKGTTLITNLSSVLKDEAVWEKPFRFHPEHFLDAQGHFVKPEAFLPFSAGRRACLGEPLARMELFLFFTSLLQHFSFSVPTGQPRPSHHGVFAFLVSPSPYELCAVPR

[7] = target: T2, Tumor necrosis factor receptor superfamily member 1A (Homo sapiens, UniProt P19438); assay: Inhibition of TNFR in human THP1-XBlue cells containing NF-kappaB-inducible SEAP reporter gene assessed as inhibition of TNFalpha-induced TNFR activation incubated at 37 degC for 1 hr by spectrophotometry; format: cell-based, THP-1
T2 sequence (P19438 whole entry): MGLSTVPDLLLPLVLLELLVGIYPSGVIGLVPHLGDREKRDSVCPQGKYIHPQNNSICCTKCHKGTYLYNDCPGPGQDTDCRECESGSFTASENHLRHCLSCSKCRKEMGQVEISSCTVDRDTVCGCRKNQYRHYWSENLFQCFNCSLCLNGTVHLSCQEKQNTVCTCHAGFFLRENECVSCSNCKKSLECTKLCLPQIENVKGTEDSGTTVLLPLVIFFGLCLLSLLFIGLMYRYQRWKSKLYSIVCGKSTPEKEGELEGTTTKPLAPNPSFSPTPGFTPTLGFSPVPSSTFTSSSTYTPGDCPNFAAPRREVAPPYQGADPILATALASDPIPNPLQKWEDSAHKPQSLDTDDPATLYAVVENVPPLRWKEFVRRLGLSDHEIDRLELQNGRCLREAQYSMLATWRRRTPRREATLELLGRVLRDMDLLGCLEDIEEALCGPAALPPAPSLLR

[8] = Apparent permeability in pig LLC-PK1 cells; format: ADME, cell-based, Sus scrofa
[9] = target: Leucine-rich repeat serine/threonine-protein kinase 2 (Homo sapiens) (UniProt Q5S007); assay: Inhibition of LRRK2 (unknown origin)
[10] = target: Receptor-type tyrosine-protein kinase FLT3 (Homo sapiens) (UniProt P36888); assay: Inhibition of FLT3 (unknown origin)
Chain of Receptor-type tyrosine-protein kinase FLT3 (Homo sapiens) (P36888 whole entry): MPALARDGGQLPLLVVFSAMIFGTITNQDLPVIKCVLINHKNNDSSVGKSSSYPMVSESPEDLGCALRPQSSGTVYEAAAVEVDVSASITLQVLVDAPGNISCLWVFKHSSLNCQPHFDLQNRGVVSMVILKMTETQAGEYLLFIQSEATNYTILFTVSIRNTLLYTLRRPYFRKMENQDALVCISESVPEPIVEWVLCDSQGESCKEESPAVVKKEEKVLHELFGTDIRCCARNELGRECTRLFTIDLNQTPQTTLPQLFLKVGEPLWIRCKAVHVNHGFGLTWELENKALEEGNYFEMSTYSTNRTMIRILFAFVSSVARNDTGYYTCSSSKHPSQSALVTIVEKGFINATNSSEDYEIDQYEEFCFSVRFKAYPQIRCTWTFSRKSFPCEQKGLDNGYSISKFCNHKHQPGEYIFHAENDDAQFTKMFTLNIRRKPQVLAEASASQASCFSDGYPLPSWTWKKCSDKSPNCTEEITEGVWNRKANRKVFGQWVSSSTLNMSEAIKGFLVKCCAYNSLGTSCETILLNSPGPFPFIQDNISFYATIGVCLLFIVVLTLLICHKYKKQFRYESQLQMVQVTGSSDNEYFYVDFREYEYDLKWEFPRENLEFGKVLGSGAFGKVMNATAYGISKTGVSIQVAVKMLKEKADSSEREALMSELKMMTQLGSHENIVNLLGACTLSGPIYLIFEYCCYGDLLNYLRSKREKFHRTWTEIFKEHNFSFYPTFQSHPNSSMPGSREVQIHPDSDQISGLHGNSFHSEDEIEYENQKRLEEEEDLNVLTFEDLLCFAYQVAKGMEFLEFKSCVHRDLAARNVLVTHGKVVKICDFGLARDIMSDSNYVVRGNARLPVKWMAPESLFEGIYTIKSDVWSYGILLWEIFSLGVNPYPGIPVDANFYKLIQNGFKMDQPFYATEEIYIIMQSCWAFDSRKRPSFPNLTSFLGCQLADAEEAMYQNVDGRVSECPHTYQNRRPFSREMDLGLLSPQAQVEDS

[11] = target: BDNF/NT-3 growth factors receptor (Homo sapiens) (UniProt Q16620); assay: Inhibition of TRKB (unknown origin)
[12] = Solubility in pH 7 solution; format: physicochemical
[13] = target: T3, Interleukin-1 receptor-associated kinase 4 (Homo sapiens) (UniProt Q9NWZ3); assay: Potency index, ratio of IC50 for inhibition of IRAK4-dependent TLR4 signaling in human THP1-XBlue cells containing NF-kappaB-inducible SEAP reporter gene to IC50 for human IRAK4 (unknown origin); format: cell-based
T3 sequence (whole entry): T1 sequence (Q9NWZ3 whole entry)

[14] = target: Tyrosine-protein kinase Lck (Homo sapiens) (UniProt P06239); assay: Inhibition of LCK (unknown origin)
Chain of Tyrosine-protein kinase Lck (Homo sapiens) (P06239 2-509 limits assumed): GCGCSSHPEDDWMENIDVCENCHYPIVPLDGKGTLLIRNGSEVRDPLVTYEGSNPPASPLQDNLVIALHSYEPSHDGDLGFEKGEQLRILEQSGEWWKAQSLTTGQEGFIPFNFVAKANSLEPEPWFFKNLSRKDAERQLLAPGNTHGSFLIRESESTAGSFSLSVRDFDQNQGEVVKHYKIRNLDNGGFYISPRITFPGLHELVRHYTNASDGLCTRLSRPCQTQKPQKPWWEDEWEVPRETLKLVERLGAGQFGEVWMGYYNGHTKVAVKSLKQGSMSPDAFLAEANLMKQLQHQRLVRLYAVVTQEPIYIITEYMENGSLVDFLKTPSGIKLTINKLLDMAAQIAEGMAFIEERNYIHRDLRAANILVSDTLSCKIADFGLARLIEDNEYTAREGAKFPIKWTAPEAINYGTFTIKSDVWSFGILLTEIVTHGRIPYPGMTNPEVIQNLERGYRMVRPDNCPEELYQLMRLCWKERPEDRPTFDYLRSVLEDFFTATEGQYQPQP

[15] = target: Dual specificity protein kinase CLK2 (Homo sapiens) (UniProt P49760); assay: Inhibition of CLK2 (unknown origin)
Chain of Dual specificity protein kinase CLK2 (Homo sapiens) (P49760 whole entry, looked up): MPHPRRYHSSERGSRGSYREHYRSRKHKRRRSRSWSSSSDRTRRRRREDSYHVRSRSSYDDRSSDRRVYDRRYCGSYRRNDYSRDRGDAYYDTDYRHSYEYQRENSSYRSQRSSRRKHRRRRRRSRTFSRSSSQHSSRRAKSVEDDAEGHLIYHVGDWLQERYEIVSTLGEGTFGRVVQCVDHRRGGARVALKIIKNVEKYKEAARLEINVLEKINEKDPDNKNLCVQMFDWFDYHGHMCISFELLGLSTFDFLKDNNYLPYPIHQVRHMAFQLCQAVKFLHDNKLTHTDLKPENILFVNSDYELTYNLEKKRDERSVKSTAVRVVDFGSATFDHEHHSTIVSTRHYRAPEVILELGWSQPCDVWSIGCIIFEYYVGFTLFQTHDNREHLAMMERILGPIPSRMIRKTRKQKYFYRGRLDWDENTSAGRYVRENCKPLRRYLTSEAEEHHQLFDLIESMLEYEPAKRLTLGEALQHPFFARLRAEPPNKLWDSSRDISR

[16] = target: Proto-oncogene tyrosine-protein kinase receptor Ret (Homo sapiens) (UniProt P07949); assay: Inhibition of RET (unknown origin)
[17] = target: Platelet-derived growth factor receptor alpha (Homo sapiens) (UniProt P16234); assay: Inhibition of PDGFRA (unknown origin)

| SMILES | IC50 [1] | IC50 [2] | IC50 [3] | IC50 [5] | IC50 [6] | IC50 [7] | Papp [8] | solubility [12] | Ratio IC50 [13] | further results |
| --- | --- | --- | --- | --- | --- | --- | --- | --- | --- | --- |
| OC[C@H]1C[C@@H](Nc2nc(Nc3cccnc3)ncc2-c2nc3cnccc3s2)[C@H](O)[C@@H]1O | 11 nM |  |  |  |  |  |  |  |  |  |
| Cc1cc(Nc2ncc(-c3nc(-c4ccccc4)cs3)c(N[C@@H]3C[C@H](CO)[C@@H](O)[C@H]3O)n2)cc(C)n1 | 4 nM | > 50000 nM | > 50000 nM | 87 nM | > 50000 nM | > 31000 nM | > 15 ×10⁻⁶ cm/s | 17 µM (≈ 8.58 µg/mL) | 10 | inhibition [4]: Active; inhibition [9]: Active; inhibition [10]: Active; inhibition [11]: Active |
| Cc1cc(Nc2ncc(-c3cncs3)c(N[C@@H]3C[C@H](CO)[C@@H](O)[C@H]3O)n2)cc(C)n1 | 2110 nM |  |  |  |  |  |  |  |  |  |
| Cc1cc(Nc2ncc(-n3cccn3)c(N[C@@H]3C[C@H](CO)[C@@H](O)[C@H]3O)n2)cc(C)n1 | 932 nM |  |  |  |  |  |  |  |  |  |
| OC[C@H]1C[C@@H](Nc2nc(Nc3ccncc3)ncc2-c2nccs2)[C@H](O)[C@@H]1O | > 20000 nM |  |  |  |  |  |  |  |  |  |
| COc1cc(Nc2ncc(-c3nc(-c4ccccc4)cs3)c(N[C@@H]3C[C@H](CO)[C@@H](O)[C@H]3O)n2)ccn1 | 89 nM |  |  |  |  |  |  |  |  |  |
| OC[C@H]1C[C@@H](Nc2nc(Nc3cncnc3)ncc2-c2nc3cnccc3s2)[C@H](O)[C@@H]1O | 12 nM |  |  |  |  |  |  |  |  |  |
| Cc1cc(Nc2ncc(-c3nc4ccncc4s3)c(N[C@@H]3C[C@H](CO)[C@@H](O)[C@H]3O)n2)ccn1 | 12 nM |  |  |  |  |  |  |  |  |  |
| OC[C@H]1C[C@@H](Nc2nc(Nc3cccnc3)ncc2-c2nc3ccncc3s2)[C@H](O)[C@@H]1O | 18 nM |  |  |  |  |  |  |  |  |  |
| Cc1cc(Nc2ncc(-c3ccc4ccccc4n3)c(N[C@@H]3C[C@H](CO)[C@@H](O)[C@H]3O)n2)cc(C)n1 | 0.74 nM | > 50000 nM | > 50000 nM | 55 nM | > 50000 nM | > 31000 nM | > 15 ×10⁻⁶ cm/s | 72 µM (≈ 34 µg/mL) | 10 | inhibition [4]: Active; inhibition [14]: Active; inhibition [15]: Active; inhibition [9]: Active; inhibition [10]: Active; inhibition [11]: Active |
| COc1cc(Nc2ncc(-n3cccn3)c(N[C@@H]3C[C@H](CO)[C@@H](O)[C@H]3O)n2)ccn1 | 6010 nM |  |  |  |  |  |  |  |  |  |
| Cc1cc(Nc2ncc(-c3nc(-c4ccccc4)cs3)c(N[C@@H]3C[C@H](CO)[C@@H](O)[C@H]3O)n2)ccn1 | 11 nM | > 50000 nM | > 50000 nM | 94 nM | > 50000 nM | > 31000 nM | > 15 ×10⁻⁶ cm/s | 19 µM (≈ 9.32 µg/mL) | 10 |  |
| COc1cc(Nc2ncc(-c3ccc4ccccc4n3)c(N[C@@H]3C[C@H](CO)[C@@H](O)[C@H]3O)n2)ccn1 |  | > 50000 nM | > 50000 nM | 25 nM | > 50000 nM | > 31000 nM | > 15 ×10⁻⁶ cm/s | 22 µM (≈ 10.4 µg/mL) | 10 |  |
| Cc1cc(Nc2cc(N[C@@H]3C[C@H](CO)[C@@H](O)[C@H]3O)c(-c3nc4ccccc4s3)cn2)cc(C)n1 | 14 nM | > 50000 nM | > 50000 nM | 3450 nM | > 50000 nM | > 31000 nM | 2 ×10⁻⁶ cm/s | < 4 µM | > 240 | inhibition [15]: Active; inhibition [10]: Active; inhibition [16]: Active; inhibition [17]: Active |
| CC(C)Oc1cc(Nc2ncc(-c3ccc4ccccc4n3)c(N[C@@H]3C[C@H](CO)[C@@H](O)[C@H]3O)n2)ccn1 |  | > 50000 nM | > 50000 nM | 216 nM | > 50000 nM | > 31000 nM | > 15 ×10⁻⁶ cm/s | 23 µM (≈ 11.6 µg/mL) | 10 |  |
| OC[C@H]1C[C@@H](Nc2nc(Nc3ccnc(OC4CC4)c3)ncc2-c2ccc3ccccc3n2)[C@H](O)[C@@H]1O | 44 nM | > 50000 nM | > 50000 nM | 341 nM | > 50000 nM | > 31000 nM | > 15 ×10⁻⁶ cm/s | 31 µM (≈ 15.5 µg/mL) | 10 |  |
| OC[C@H]1C[C@@H](Nc2nc(NC3CC3)ncc2-c2nc3cnccc3s2)[C@H](O)[C@@H]1O | 647 nM |  |  |  |  |  |  |  |  |  |
| Cc1cc(Nc2ncc(-c3cscn3)c(N[C@@H]3C[C@H](CO)[C@@H](O)[C@H]3O)n2)cc(C)n1 | 852 nM |  |  |  |  |  |  |  |  |  |
